Laboratory results from US20020197653A1, “System for detecting reporter gene expression” (priority 2001, published 2002).

Test system: NOS gene under the control of the Gal10 promoter (iNOS)
Assay: Small-molecule-induced expression of the NOS reporter gene in yeast, detected by bead-bound fluorescein-based NO sensor
Format: cell-based
Conditions: yeast culture in 96-well plates, galactose final concentration 100 mM, TENTAGEL sensor beads, fluorescent microscope with CCD camera
Method: The lactone function of the sensor is effectively aminolysed at room temperature over 48 hours. The apparent loading achieved was about 10% (0.03 mmol/g), although it is possible that much lower loading was in fact achieved.
We have also obtained a yeast strain developed by Mansuy et al (Sari et al. Biochemistry 35(22):7204-7213, June 1996; incorporated herein by reference) in which transcription of the NOS gene is under the control of the Gal10 promoter and is therefore inducible (and is referred to as iNOS). We grew the yeast cells in glucose media (SGI medium containing 7 g/L yeast nitrogen base without amino acids, 1 g/L casamino acids, 20 g/L glucose, and 50 mg/L tryptophan, at 30 ° C.) so that expression of the iNOS gene was repressed. The cells were harvested and washed with medium lacking any sugar (7 g/L yeast nitrogen base without amino acids, 1 g/L casamino acids and 50 mg/L tryptophan), were resuspended in the same sugar-free medium, and were distributed into 96-well plates.
The TENTAGEL beads containing sensor were washed with CH2Cl2, THF, DMF, i-PrOH, MeOH, EtOH, and deionized water, and were dried. 10 μl of sensor beads in sugar-free medium were added to wells containing 170 μl of yeast culture (20-30 beads per well). […]

## O=C[C@H](O)[C@@H](O)[C@@H](O)[C@H](O)CO [galactose]
  color change of NO sensor beads exposed to induced cells (iNOS reporter expression): distinct color change (green ->yellow)
